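96-well plates; 48 h exposure; 5 concentrations. Endpoints by linear interpolation between flanking doses. Not reached: highest tested concentration assigned. GI50: concentration for 50% inhibition of growth. TGI marks complete inhibition of growth.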
Assays:
Experiment in all cases: growth of human tumour cells (NCI), 48 h
[1] = system: HT29 colon
[2] = system: 786-0 renal
[3] = system: UACC-257 melanoma
[4] = system: SN12C renal
[5] = system: HCC-2998 colon
[6] = system: SK-MEL-2 melanoma
[7] = system: OVCAR-4 ovarian
[8] = system: HOP-62 NSCLC
[9] = system: MALME-3M melanoma
[10] = system: SF-268 CNS

| SMILES | GI50 [1] [µM] | TGI [1] [µM] | GI50 [2] [µM] | TGI [2] [µM] | GI50 [3] [µM] | TGI [3] [µM] | GI50 [4] [µM] | TGI [4] [µM] | GI50 [5] [µM] | TGI [5] [µM] | GI50 [6] [µM] | TGI [6] [µM] | GI50 [7] [µM] | TGI [7] [µM] | GI50 [8] [µM] | TGI [8] [µM] | GI50 [9] [µM] | TGI [9] [µM] | GI50 [10] [µM] | TGI [10] [µM] |
| --- | --- | --- | --- | --- | --- | --- | --- | --- | --- | --- | --- | --- | --- | --- | --- | --- | --- | --- | --- | --- |
| CC(C)C[C@H](CC(=O)O)C(=O)N[C@@H](Cc1c[nH]c2ccccc12)C(=O)N[C@@H](C)c1ccccc1 | > 25 | > 25 | > 25 | > 25 | > 25 | > 25 | > 25 | > 25 | > 25 | > 25 | > 25 | > 25 | > 25 | > 25 | > 25 | > 25 | > 25 | > 25 | > 25 | > 25 |
| C/C(=C1/N=C(c2cc([N+](=O)[O-])ccc2Cl)N(c2ccc(Br)cc2)C1=O)c1ccc(N(CCC#N)CCC#N)cc1C | – | > 100 | – | > 100 | – | > 100 | – | > 100 | – | 72.1 | – | > 100 | – | > 100 | – | > 100 | – | > 100 | – | > 100 |
| CC/C=C\C[C@H]1C/C=C2/C(=O)C=C[C@H]2C/C=C\CCCC(=O)O1 | 1.85 | 6.15 | 3.24 | 10.2 | 5.04 | 12 | 2.62 | > 50 | 2.37 | 8.43 | 3.77 | 12.6 | 2.81 | 9.73 | 2.09 | 7.72 | 7.81 | 17.4 | 3.77 | 17.8 |
| CCCCCCCCCCC(=O)CCCCCCC(=O)O | – | 36.1 | – | 39.6 | – | > 100 | – | 75.2 | – | 36.1 | – | > 100 | – | > 100 | – | 68.8 | – | 45 | – | > 100 |
| NC(N)=NN=c1c(=O)c2ccccc2c1=O | 2.81 | 6.27 | 19.1 | 33.3 | 15.1 | 28.9 | 1.81 | 3.83 | 14.2 | 28 | 20.7 | 40.1 | 12.6 | 25.2 | 9 | 21 | 1.66 | 3.06 | 2.06 | 3.81 |
| O=S(=O)(C1=CC(S(=O)(=O)c2ccccc2)COC1)c1ccccc1 (stereo not given) | – | > 100 | – | > 100 | – | > 100 | – | > 100 | – | > 100 | – | > 100 | – | > 100 | – | > 100 | – | > 100 | – | > 100 |
| O=C(COc1ccc(/C=C2\Oc3ccc4ccccc4c3C2=O)cc1)c1ccc([N+](=O)[O-])cc1 | 9.05 | 24 | 14.7 | 34.6 | 18.9 | 58.5 | 10.5 | 30.7 | 16.7 | 31.6 | 15.5 | 73.7 | 2.14 | 8.87 | 26.7 | 61.6 | 13.3 | 39.8 | 13.2 | 33.7 |
| O=C(Nc1ccc(OS(=O)(=O)c2ccc(F)cc2)cc1)C12CC3CC(CC(C3)C1)C2 | 0.211 | > 100 | 8.33 | 44.5 | 11 | > 100 | > 43.6 | > 100 | > 28.2 | > 100 | 12.9 | 39.3 | 4.38 | 37.7 | 11.3 | 30.6 | 9.13 | 54.4 | 19.8 | > 100 |
| O=c1cc(-c2ccc(Cl)cc2)[nH]c2ccccc12 | 40.7 | > 100 | 64.8 | > 100 | > 100 | > 100 | > 100 | > 100 | > 100 | > 100 | > 100 | > 100 | > 100 | > 100 | 61.4 | > 100 | 53.5 | > 100 | 83.3 | > 100 |
| Cc1ccccc1/C=C/c1csnn1 | – | > 100 | – | > 100 | – | > 100 | – | > 100 | – | > 100 | – | > 100 | – | > 100 | – | > 100 | – | > 100 | – | > 71.4 |
| Cc1cc(S(=O)(=O)/N=C(\N)Nc2cccc(O)c2)c(SCc2ccccc2)cc1Cl | 20.6 | 43.9 | 16.9 | 33.5 | 17.7 | 35.1 | 17.6 | 38.2 | 32.6 | 65.1 | 15.7 | 34.9 | 12.1 | 45.1 | 15.1 | 31.7 | 27.9 | 63.9 | 17.4 | 69 |
| c1ccc2c(c1)[nH]c1cnc3c4ncccc4[nH]c3c12 | – | > 100 | – | > 100 | – | > 100 | – | > 100 | – | > 100 | – | > 100 | – | > 100 | – | > 100 | – | > 100 | – | > 100 |
| CN(C)c1ccc(C(=S)c2ccc(N(C)C)cc2)cc1 | 3.79 | > 100 | 10.3 | > 100 | 16.2 | > 100 | 5.91 | > 100 | 9.66 | > 100 | 3.53 | 15.2 | 16.9 | > 100 | 5.09 | > 100 | 5.5 | > 100 | 10.1 | > 100 |

Source: PubChem BioAssay (NCI)
